Measurements from US9499493B2, “2,4-pyrimidinediamine compounds and their uses” (Rigel Pharmaceuticals, Inc., priority 2002, dated 2016).

Legend:
[1] = test system: cultured human mast cells (CHMC); assay: CHMC low cell density IgE activation: tryptase assay; assay type: cell-based; details: anti-IgE
Summary of the method: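 Read-out: tryptase released into supernatant, measured by substrate turnover over 30 min at RT. Low-density CHMC (1000-1500 cells/well, per donor degranulation activity) in MT buffer, 1 hr at 37° C, then anti-IgE challenge 30 min at 37° C.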

[2] = test system: cultured human mast cells (CHMC); assay: CHMC low cell density ionomycin activation: tryptase assay; assay type: cell-based

Structure (SMILES): CCOC(=O)COc1cccc(Nc2ncc(F)c(Nc3ccc4c(c3)C(OC)CCO4)n2)c1 (stereo not shown) [R950294, N4-(4-Methoxy-3,4-dihydro-2H-1-benzopyran-6-yl)-5-fluoro-N2-[3-ethoxycarbonylmethyleneoxyphenyl]-2,4-pyrimidinediamine]
- IC50 [1]: 2000 nM
- IC50 [2]: 8010 nM

Structure (SMILES): CNC(=O)C1Cc2cc(Nc3ncc(F)c(Nc4ccc(OCCO)nc4)n3)ccc2O1 (racemic) [R927039, (±)-N2-[2,3-Dihydro-(N-methylamino)carbonylbenzofuran-5-yl]-5-fluoro-N4-[2-(2-hydroxyethyleneoxy)pyridin-5-yl]-2,4-pyrimidinediamine]
- IC50 [1]: 1230 nM
- IC50 [2]: > 10000 nM

Structure (SMILES): O=C(COc1cccc(Nc2ncc(F)c(Nc3ccc4c(c3)OCCO4)n2)c1)NCCOC(=O)CCCCC1SCC2NC(=O)NC21 (stereo not drawn) [R926811, N4-(3,4-Ethylenedioxyphenyl)-5-fluoro-N2-[3-[N-2-(D)-(+)-biotinylethylamino]carbonylmethyleneoxyphenyl]-2,4-pyrimidinediamine]
- IC50 [1]: 3660 nM
- IC50 [2]: > 10000 nM

Structure (SMILES): Fc1cnc(Nc2ccc3c(c2)OCCO3)nc1Nc1ccc(OCCN2CCOCC2)cc1 [R926711, N2-(3,4-Ethylenedioxyphenyl)-5-fluoro-N4-[4-[2-(N-morpholino)ethyleneoxy]phenyl]-2,4-pyrimidinediamine]
- IC50 [1]: 1240 nM
- IC50 [2]: > 10000 nM

Structure (SMILES): CC(C)(CO)c1ccc(Nc2ncc(F)c(Nc3ccc4oc(CO)cc4c3)n2)cc1 [R935177, 5-Fluoro-N2-[4-(2-hydroxy-1,1,dimethylethyl)phenyl]-N4-(2-hydroxymethylbenzofur-5-yl)-2,4-pyrimidinediamine]
- IC50 [1]: 889 nM
- IC50 [2]: > 10000 nM

Structure (SMILES): Oc1cccc(Nc2ncc(F)c(Nc3ccc4c(c3)OC(F)(F)O4)n2)c1 [R926794, N4-(3,4-Difluoromethylenedioxyphenyl)-5-fluoro-N2-(3-hydroxyphenyl)-2,4-pyrimidinediamine]
- IC50 [1]: 1380 nM
- IC50 [2]: > 10000 nM

Structure (SMILES): COC(=O)Cn1ncc2cc(Nc3nc(Nc4ccc5c(c4)OCCO5)ncc3F)ccc21 [R935249, N2-(3,4-Ethylenedioxyphenyl)-5-fluoro-N4-[1-(methoxycarbonyl)methyl-indazoline-5-yl]-2,4-pyrimidinediamine]
- IC50 [1]: 1100 nM
- IC50 [2]: > 10000 nM

Structure (SMILES): O=C1COc2cc(Nc3nc(Nc4cccc(O)c4)ncc3F)ccc2N1 [R908698]
- IC50 [1]: 1670 nM
- IC50 [2]: > 10000 nM

Structure (SMILES): CCOC(=O)COc1cccc(Nc2nc(Nc3ccc4c(c3)OCCO4)ncc2F)c1 [R926774, N4-(3-Ethoxycarbonylmethyleneoxyphenyl)-N2-(3,4-ethylenedioxyphenyl)-5-fluoro-2,4-pyrimidinediamine]
- IC50 [1]: 1930 nM
- IC50 [2]: 7940 nM

Structure (SMILES): CON=C(N)COc1ccc(Nc2nc(Nc3ccc4c(c3)OCCO4)ncc2F)cc1 [R945175, N2-(3,4-Ethylenedioxyphenyl)-5-fluoro-N4-[4-methoxyimino(amino)ethyleneoxyphenyl]-2,4-pyrimidinediamine]
- IC50 [1]: 1650 nM
- IC50 [2]: > 10000 nM

Structure (SMILES): CCOC(=O)c1cnc(N[C@@H](Cc2ccccc2)C(=O)OCC)nc1N[C@@H](Cc1ccccc1)C(=O)OCC [R926526, 2,4-Bis[N-(L)-phenylalaninylethyl ester]-5-ethoxycarbonylpyrimidine]
- IC50 [1]: > 10000 nM
- IC50 [2]: > 10000 nM

Structure (SMILES): COC(=O)Cn1ncc2cc(Nc3nc(Nc4ccc(OC(C)C)cc4)ncc3F)ccc21 [R935242, 5-Fluoro-N2-(4-isopropoxyphenyl)-N4-[1-(methoxycarbonyl)methyl-indazoline-5-yl]-2,4-pyrimidinediamine]
- IC50 [1]: 2860 nM
- IC50 [2]: > 10000 nM

Structure (SMILES): COc1ccc(Nc2ncc(C)c(Nc3ccc(OC)c(-c4ccccc4)c3)n2)cc1-c1ccccc1 [R935002, N2,N4-Bis[(4-methoxy-3-phenyl)phenyl]-5-methyl-2,4-pyrimidinediamine]
- IC50 [1]: > 10000 nM
- IC50 [2]: > 10000 nM

Structure (SMILES): Fc1cnc(Nc2ccc3c(c2)OCCCO3)nc1Nc1ccc2c(c1)OCCCO2 [R935162, N2,N4-Bis(3,4-propylenedioxyphenyl)-5-fluoro-2,4-pyrimidinediamine]
- IC50 [1]: 269 nM
- IC50 [2]: > 10000 nM
